One assay concerns Cynomolgus monkey iPSCs. Put plainly: Cell cycle analysis of Cynomolgus monkey iPSCs (flow cytometry). The conditions noted are these: Cynomolgus monkey iPSCs, 24 h, 30 nM (positive control). In kind it is cell-based. The procedure:
(§1) For the analysis of the cell cycle, monkey stem cells were detached with Accutase (Stem Cell Technologies) and plated at 15000 cells/cm2 in 6 well plates coated with Matrigel (BD Biosciences) in MT medium supplemented with 10 ng/ml ActivinA, 15 ng/ml FGF2, and 10 μM Rock inhibitor. Cells were expanded for 1 day and then synchronized by starvation for 7 h in MT medium without supplements FGF2 and ActivinA. Before flow cytometry, cells were incubated for 24 h with fresh MT medium containing supplements FGF2 and ActivinA and test items at 80 nM, 400 nM, and 2000 nM or 30 nM rapamycin as positive control to arrest cells in G1 phase. Human stem cells were detached with Accutase (Stem Cell Technologies) and plated at 40000 cells/cm2 in 6 well plates coated with Matrigel (BD Biosciences) in mTeSR1 supplemented with 10 μM Rock Inhibitor Y-27632 (Sigma-Aldrich). Cells were expanded for 3 days with daily medium change. Since human iPSCs lose their properties during starvation by growth factor withdrawal, stem cells were synchronized with 200 ng/ml Nocodazole (Sigma-Aldrich) for 5 h and washed subsequently 2 times with mTesR1 Medium. Before flow cytometry, cells were incubated for 24 h with fresh TesR1 medium containing test items at 80 nM, 400 nM, and 2000 nM or 30 nM rapamycin as positive control to arrest cells in G1 phase.
(§2) For cell cycle analysis, human iPSCs were washed with PBS, detached with Accutase (Stem Cell Technologies) and collected by centrifugation. Cells were stained for 1 h at 37° C. with 600 ul of 7 AAD/Saponin/RNAse mix ([…] 7 AAD (#559925, BD), 50 μg/ml RNase, and 0.03% Saponin dissolved in FACS buffer (PBS, 5% FBS, 10 mM Hepes)). Cynomolgus monkey iPSCs were washed with PBS, detached with Accutase (Stem Cell Technologies) and collected by centrifugation. Cells were stained for 30 min at 37° C. in 300 ul standard MT medium (with FGF2 and ActivinA) containing 1 ul Vybrant Dye Cycle Violet Stain (#V35003, 1000× stock, Invitrogen) per ml medium. Additionally 2 ul 7 AAD (50 μg/ml 7 AAD) were added without permeabilization to label dead cells; cells were incubated for 10 min at 37° C. Flow cytometry analysis was performed using a Canto II cytometer (BD Biosciences) and data were analysed with the FlowJo software.
In general terms: A flow cytometer gives signals particle by particle.

The test system of another assay is human iPSCs. In words: Cell cycle analysis of human iPSCs (flow cytometry). Type of assay: cell-based. To be noted: 24 h, 30 nM (positive control). The procedure: as §1, §2

The text below walks through data of patent publication US12350273B2, “Treatment of SMA” (Hoffmann-La Roche Inc., priority 2017, dated 2025).

Consider `CO[C@H]1C[C@@H]2CC[C@@H](C)[C@@](O)(O2)C(=O)C(=O)N2CCCC[C@H]2C(=O)O[C@H]([C@H](C)C[C@@H]2CC[C@@H](O)[C@H](OC)C2)CC(=O)[C@H](C)/C=C(\C)[C@@H](O)[C@@H](OC)C(=O)[C@H](C)C[C@H](C)/C=C/C=C/C=C/1C` [Rapamycin, reference compound], for which, in the assay with Cynomolgus monkey iPSCs, the “percentage of events in G1 phase, mean” value was 41.7%; the “percentage of events in G2 phase, mean” value amounted to 45.6%; the “percentage of events in S phase, mean” value amounted to 12.7%. Moreover, in the assay with human iPSCs, the “percentage of events in G1 phase, mean” value came to 58.3%; the “percentage of events in G2 phase, mean” value turned out to be 30.5%; the “percentage of events in S phase, mean” value was 11.2%.
